The supplement of paper PMC10307832

Tests used:
Test in all cases: relative viability (nuclei count vs DMSO), 5 days (fraction); higher = more cells survive
[1] = compound: C1=CC=C(C(=C1)C2=CC=C(C=C2)C3=CSC4=C3C(=C(C(=O)N4)C#N)O)O + CCNC(=O)c1noc(-c2cc(C(C)C)c(O)cc2O)c1-c1ccc(CN2CCOCC2)cc1 [Luminespib] (partner 0.01 µM)
Summary of the method: (§1)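 For relative viability, nuclei counts in treated wells were divided by those in vehicle wells. Lung cancer cell lines had been pin-tool dosed in 1536-well plates the day after seeding and cultured for 5 days, then fixed and stained in one step (final 0.05% Triton X-100, 1% formaldehyde, 1 ug/ml Hoechst) and imaged at 4×. Doses were one drug alone or a fixed anchor-drug dose plus five library-drug doses (not always all listed) in √10 steps, and values are duplicate-plate medians.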

[2] = compound: C1=CC=C(C(=C1)C2=CC=C(C=C2)C3=CSC4=C3C(=C(C(=O)N4)C#N)O)O + CS(=O)(=O)CCNCc1ccc(-c2ccc3ncnc(Nc4ccc(OCc5cccc(F)c5)c(Cl)c4)c3c2)o1 [Lapatinib] (partner 2 µM)
Summary of the method: as §1

[3] = compound: C1=CC=C(C(=C1)C2=CC=C(C=C2)C3=CSC4=C3C(=C(C(=O)N4)C#N)O)O + NC(=O)Nc1cc(-c2cccc(F)c2)sc1C(=O)N[C@H]1CCCNC1 [AZD7762] (partner 0.2 µM)
Summary of the method: as §1

[4] = compound: O=C(CCCCCCNC(=O)c1cnc(N(c2ccccc2)c2ccccc2)nc1)NO [Ricolinostat] + CS(=O)(=O)N1CCN(Cc2cc3nc(-c4cccc5[nH]ncc45)nc(N4CCOCC4)c3s2)CC1 [Pictilisib] (partner 1 µM)
Summary of the method: as §1

Cell Line | relative viability ([1]; first compound 0.08 µM) | relative viability ([1]; first compound 0.253 µM) | relative viability ([1]; first compound 0.8 µM) | relative viability ([1]; first compound 2.53 µM) | relative viability ([1]; first compound 8 µM) | relative viability ([2]; first compound 0.08 µM) | relative viability ([2]; first compound 0.253 µM) | relative viability ([2]; first compound 0.8 µM) | relative viability ([2]; first compound 2.53 µM) | relative viability ([2]; first compound 8 µM) | relative viability ([3]; first compound 0.08 µM) | relative viability ([3]; first compound 0.253 µM) | relative viability ([3]; first compound 0.8 µM) | relative viability ([3]; first compound 2.53 µM) | relative viability ([3]; first compound 8 µM) | relative viability ([4]; first compound 0.08 µM) | relative viability ([4]; first compound 0.253 µM) | relative viability ([4]; first compound 2.53 µM) | relative viability ([4]; first compound 0.8 µM)
NCI-H1975 | 0.174 | 0.248 | 0.161 | 0.253 | 0.161 | 0.756 | 1.01 | 0.832 | 0.895 | 0.766 | 0.665 | 0.746 | 0.606 | 0.736 | 0.633 | 0.283 | 0.309 | 0.231 | 
NCI-H1993 | 0.625 | 0.715 | 0.7 | 0.763 | 0.646 | 0.889 | 0.814 | 0.764 | 0.869 | 0.782 | 0.812 | 0.841 | 0.811 | 0.74 | 0.646 | 0.645 | 0.889 | 0.239 | 0.882
NCI-H2085 | 0.403 | 0.475 | 0.479 | 0.499 | 0.416 | 0.608 | 0.841 | 0.677 | 0.685 | 0.671 | 0.891 | 1.06 | 0.86 | 1.02 | 0.997 |  | 0.447 | 0.416 | 0.431
NCI-H2087 | 0.165 | 0.162 | 0.222 | 0.172 | 0.204 | 1.05 | 1.11 | 1.01 | 1.19 | 1.04 | 1.58 | 1.2 | 1.25 | 1.41 | 0.75 | 0.806 | 0.828 | 0.87 | 0.867
NCI-H2126 | 0.894 | 0.895 | 0.89 | 0.948 | 0.928 | 0.737 | 0.748 | 0.728 | 0.766 | 0.834 | 1.01 | 1.09 | 0.973 | 1.1 | 0.763 | 0.393 | 0.497 | 0.383 | 0.459
NCI-H2170 | 0.594 | 1.11 | 0.992 | 0.752 | 0.609 | 0.267 | 0.276 | 0.278 | 0.279 | 0.286 | 0.898 | 0.722 | 0.875 | 0.842 | 0.548 | 0.27 | 0.315 | 0.287 | 0.355
NCI-H2347 | 0.354 | 0.404 | 0.405 | 0.37 | 0.492 | 0.844 | 1.17 | 0.889 | 0.916 | 0.932 | 0.692 | 0.79 | 0.758 | 0.694 | 0.739 | 0.451 | 0.628 | 0.644 | 0.884
NCI-H2405 | 0.723 | 0.855 | 0.675 | 0.604 | 0.567 | 1.01 | 1.12 | 1.11 | 0.984 | 1.04 | 0.661 |  | 0.752 | 0.635 | 0.686 | 0.389 | 0.494 | 0.277 | 0.412
NCI-H3122 | 0.106 | 0.0689 | 0.0946 | 0.105 | 0.0854 | 1.05 | 1.17 | 1.06 | 1.06 | 1.02 | 0.985 | 0.987 | 0.995 | 1.03 | 0.917 | 0.533 | 0.606 | 0.866 | 0.696
PC-3 [JPC-3] | 0.564 | 0.774 | 0.787 | 0.679 | 0.74 | 0.488 | 0.556 | 0.479 | 0.441 | 0.472 | 0.597 | 0.935 | 0.645 | 0.745 | 0.618 | 0.669 | 0.808 | 0.456 | 0.673
PC-14 |  | 0.185 | 0.105 | 0.162 | 0.142 | 0.287 | 0.38 | 0.3 | 0.256 | 0.269 | 0.316 | 0.272 | 0.332 | 0.363 | 0.24 | 0.536 | 0.681 | 0.321 | 0.653
RERF-LC-KJ | 1.34 | 1.37 | 1.44 | 1.17 | 0.843 | 0.787 | 0.883 | 0.884 | 0.833 | 0.848 | 0.884 | 1.06 | 0.947 | 0.778 | 0.553 | 0.755 | 0.637 | 0.467 | 0.422
